The text below walks through data of BindingDB's records for patent US20230322706 (Lg Chem, 2023).

Each structure is given as a SMILES string.

The target in this experiment is T1, Diacylglycerol O-acyltransferase 2 (Homo sapiens, UniProt Q96PD7).
T1 sequence (Q96PD7 whole entry): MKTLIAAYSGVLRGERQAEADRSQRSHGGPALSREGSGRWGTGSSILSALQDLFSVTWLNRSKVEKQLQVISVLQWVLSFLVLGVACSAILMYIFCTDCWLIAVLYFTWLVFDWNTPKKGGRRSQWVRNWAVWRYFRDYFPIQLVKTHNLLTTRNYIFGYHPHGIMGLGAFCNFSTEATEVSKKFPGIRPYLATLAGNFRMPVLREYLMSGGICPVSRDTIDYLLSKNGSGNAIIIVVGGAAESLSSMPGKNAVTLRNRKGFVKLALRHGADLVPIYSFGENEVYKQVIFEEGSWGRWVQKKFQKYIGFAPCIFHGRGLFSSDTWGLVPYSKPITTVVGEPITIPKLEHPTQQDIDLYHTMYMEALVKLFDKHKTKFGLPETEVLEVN
Briefly: Measurement of Inhibitory Effect Against DGAT2 Enzyme Activity. The method, then:
1. […] In order to prepare the pBacPAK9-DGAT2, which is DGAT2 expression vector, the human DGAT2 gene amplified by polymerase chain reaction (PCR) was cloned into the EcoR1 and Xho1 sites of the pBacPAK9 (clonctech) vector. The nucleotide sequence of the primers used in PCR was the forward primer 5′ […] […] and the reverse primer 5′ […]. The composition of the reaction solution was to contain 50 ng of cDNA clone (OriGene), 200 μM of dATP, dCTP, dTTP, dGTP, 200 nM of each primer, 1 unit of Tag DNA Polymerase (Toyobo), 1x PCR buffer, and the final volume was adjusted to 20 μl. The reaction conditions were denatured at 95° C. for 5 minutes, followed by 30 times of 94° C. for 20 seconds, 60° C. for 20 seconds, and 72° C. for 90 seconds, followed by further reaction at 72° C. for 7 minutes. 2. […] Recombinant human DGAT2 protein was expressed in Sf-21 cells, which are insect cells, by using the BacPack baculovirus expression system (Clontech). The brief manufacturing process is as follows. First, the pBacPAK9-DGAT2 expression vector was transfected with BacPAK6 virus DNA (Bsu36I digest) into sf21 cells using Bacfectin to prepare a recombinant DGAT2 expressing baculovirus. The thus prepared baculovirus was infected with Sf-21 cells at 10 MOI (multiplicity of infection), and after 72 hours, infected insect cells were collected and membrane proteins were isolated. […] Protein concentration was quantified by using the BCA Protein Assay Kit (Thermo Scientific). […] The next day, the amplified scintillation signal (cpm) in Topcounter (Packard) was measured to measure the degree of production of [14C]-labeled triacyl glycerol (TG) as a reaction product. The measured value when the compound was not treated was used as a positive control, and the measured value of the compound treated group was calculated as a relative % to measure the inhibition effect of the compound on TG production.
For the molecule `CCOc1ccccc1Oc1cccc(-c2cncc(NC(=O)/C=C/c3ccc(C(C)(C)C(=O)O)cc3)n2)c1` [US20230322706, Example 17], the half-inhibitory concentration (IC50) – broadly, the concentration that gives 50% inhibition – came out at 240 nM. This lies in the sub-micromolar range.

`CCOc1ccccc1Oc1cccc(-c2cncc(NC(=O)Cc3ccc(C(F)(F)C(=O)O)cc3)n2)c1` [US20230322706, Example 14]: the IC50 stood at 3100 nM.

The molecule `CCOC(=O)C(F)(F)c1ccc(CC(=O)Nc2cncc(-c3cncc(Oc4ccccc4OCC)c3)n2)cc1` [US20230322706, Example 6] displayed an IC50 of 120 nM.
